Where two headings read alike, the source gives them in different places.
Assays:
[1] = system: HT-29 cells; test: MTT cell viability assay, HT-29; type: cell-based; details: Homo sapiens, 48 h, read-out: Growth (%) HT-29
Description: (§1) The cell viability assay of each compound was carried out using the MTT assay. Each compound was dissolved in dimethyl sulfoxide (DMSO) at a concentration of 0.01 M. Serial dilutions were prepared with a non-supplemented culture medium. The effect of each compound on the cell viability was determined at two different concentrations (10 and 50 µM) in MCF-7, HTB-54, and HT-29 cells. In addition, the selected compounds were tested at six different concentrations between 0.1–100 µM in MCF-7, T47D, H1299, HTB-54, and 184B5 cells.
(§2) Briefly, 1 × 10^4 tumor cells/well or 2 × 10^4 non-tumorigenic cells/well were grown in 96-well plates for 12 h. Then, these cells were incubated with either DMSO (control) or a different concentration of each of the tested compounds for 48 h. Three hours before the termination point, 20 µL of MTT were added to measure the cellular viability. The resultant formazan crystals were dissolved in 50 µL of DMSO, and the absorbance was measured at 570 and 630 nm. The results are expressed as IC50, the half maximal inhibitory concentration. This value was calculated using OriginPro 8.5.1. software (OriginLab, Northampton, MA, USA) by nonlinear curve fitting. Furthermore, the selectivity index (SI) was calculated as the ratio of the IC50 values determined for the non-malignant and the tumor cells (IC50 (184B5)/IC50 (MCF-7). The data were obtained from at least three independent experiments performed in quadruplicates.

[2] = system: MCF-7 cells; test: MTT cell viability assay, MCF-7; type: cell-based, human; details: for activity at 10 µM / activity at 50 µM / IC50: Homo sapiens, MCF7; for activity at 10 µM / activity at 50 µM / reduction of cell growth / IC50: 48 h; for activity at 10 µM / activity at 50 µM: read-out: Growth (%) MCF-7; for reduction of cell growth: in at least one of the cell lines (MCF-7, HT-29, HTB-54)
Description: as §1, §2

[3] = system: HTB-54 cells; test: MTT cell viability assay, HTB-54; type: cell-based; details: Homo sapiens, HTB-54, 48 h; for activity at 10 µM / activity at 50 µM: read-out: Growth (%) HTB-54; for IC50: lung cancer cells, MTT, read-out: IC50 HTB-54
Description: as §1, §2

[4] = DPPH radical scavenging assay; details: for DPPH radical scavenging: 0.003 mg/mL
Description: DPPH assay was performed as described by Svinyarov. Briefly, each compound was initially dissolved in absolute methanol at a concentration of 1 mg/mL, and serial dilutions were prepared. Ascorbic acid (Asc), a well-known and potent antioxidant, was used as a positive control. A methanolic solution (100 µM) of DPPH^• was prepared daily and […]. The absorbance measurements of this solution were needed in order to check the stability of the radical through the time of analysis. Then, 100 µL of DPPH in methanol were added to 100 µL of the compounds’ solutions, and the decolorization of the purple radical to the yellow reduced form was followed at 517 nm. Determinations were recorded at several time intervals. All of the measurements were carried out in triplicate. The results were expressed as the percentage of the radical scavenged, calculated using the following formula:(1) % DPPH radical scavenging = Acontrol−Asample/Acontrol × 100 where Acontrol refers to the absorbance of the negative control and Asample refers to the absorbance of the tested compounds. The results are expressed as percentage of DPPH radical scavenging ± standard deviation (SD).

[5] = system: H1299 cells; test: MTT cell viability assay, H1299; type: cell-based; details: Homo sapiens, NCI-H1299, lung cancer cells, 48 h
Description: as §1, §2

[6] = system: T47D cells; test: MTT cell viability assay, T47D; type: cell-based; details: Homo sapiens, breast cancer cells, 48 h
Description: as §1, §2

[7] = system: 184B5 cells; test: MTT cell viability assay, non-malignant 184B5; type: cell-based; details: Homo sapiens, non-malignant breast cells, 48 h
Description: as §1, §2

[8] = ABTS radical scavenging assay; details: 0.03 mg/mL, after the incubation time
Description: ABTS radical scavenging was assayed with a colorimetric test as well [59]. Briefly, ABTS was dissolved in deionized water at 1 mg/mL and oxidized to ABTS^+• with potassium persulfate (2.45 mM final concentration). This reaction mixture was kept overnight at room temperature in the dark. After radical generation, ABTS^+• was diluted with 50% ethanol until an absorbance of 0.70 ± 0.02 at 734 nm for measurements. The tested compounds were solved in absolute ethanol at a concentration of 1 mg/mL, and 20 µL of this solution were added to 180 µL of the diluted ABTS^+•. After 6 min of incubation, the absorbance at 734 nm was recorded using 50% ethanol as the blank. Trolox and Asc were used as the positive controls. All of the determinations were carried out in triplicate. The same time intervals as in the DPPH assay were also measured. The ability to scavenge ABTS^+• was calculated using the following formula:(2) % ABTS radical scavenging=Acontrol−Asample/Acontrol × 100 where Acontrol refers to the absorbance of the negative control and Asample refers to the absorbance of the tested compounds. The results are expressed as percentage of ABTS radical scavenging ± SD.

[9] = breast cancer cells, MTT, read-out: IC50 MCF-7

With `COc1ccc(NC(=[Se])NC(=O)c2ccccc2)cc1` [Compound 1c] the activity at 10 µM [1] was 74.9%, the activity at 50 µM [1] was 31.9% and the activity at 10 µM ([2]; 10 μM) was 67.8%. For the same compound, the activity at 50 µM ([2]; 50 μM) was 13.9%, the activity at 10 µM [3] was 64.4% and the activity at 50 µM [3] was 57.2%. The “DPPH inhibition compared with Asc” value ([4]; 0.0006 mg/mL, all time-points) was “greater inhibition compared with Asc” and the DPPH radical scavenging [4] was “around 40%”.

`O=C(NC(=[Se])Nc1ccc(Cl)cc1)c1ccccc1` [Compound 1e] gave an activity at 10 µM [1] of 77.9%, an activity at 50 µM [1] of 33.8% and an activity at 10 µM ([2]; 10 μM) of 74%. It also gave an activity at 50 µM ([2]; 50 μM) of 13.9%, an activity at 10 µM [3] of 82.3% and an activity at 50 µM [3] of 57.2%. For the same compound, the DPPH radical scavenging [4] was “around 40%”.

Work on `O=C(NC(=[Se])Nc1ccccc1)c1ccccc1Cl` [Compound 2a] yielded an activity at 10 µM [1] of 79.1%, an activity at 50 µM [1] of 37.8% and an activity at 10 µM ([2]; 10 μM) of 93.6%. The activity at 50 µM ([2]; 50 μM) was 30.5%, the activity at 10 µM [3] was 91.3% and the activity at 50 µM [3] was 65.6%. The DPPH radical scavenging [4] was “around 40%”.

`CSc1ccc(Cl)c(C(=O)NC(=[Se])Nc2ccc(C)cc2)c1` [Compound 3b] gave an activity at 10 µM [1] of 64.7%, an activity at 50 µM [1] of 42.5% and an activity at 10 µM ([2]; 10 μM) of 64.2%. For the same compound, the activity at 50 µM ([2]; 50 μM) was 24.5%, the activity at 10 µM [3] was 45.1% and the activity at 50 µM [3] was 22.2%. For the same compound, the DPPH radical scavenging [4] was “around 40%”.

Compound `O=C(NC(=[Se])Nc1ccc(C(F)(F)F)cc1)c1cccs1` [Compound 5d] has an IC50 [5] of 7.5 ± 0.2 µM, an IC50 [6] of 6.1 ± 0.4 µM and an activity at 10 µM [1] of 60.6%. For the same compound, the activity at 50 µM [1] was 29.3%, the “reduction of cell growth” value ([2]; 10 μM) was “at least 45%” and the “reduction of cell growth” value ([2]; 50 μM) was “more than 85%”. For the same compound, the activity at 10 µM ([2]; 10 μM) was 46.7%, the activity at 50 µM ([2]; 50 μM) was 23.5% and the IC50 ([2]; MCF-7 and T47D pooled, read-out: IC50 on breast cancer cells) was 4.2 to 8 µM. It also gave an IC50 [2, 9] of 4.2 ± 0.2 µM, an activity at 10 µM [3] of 76.2% and an activity at 50 µM [3] of 4.3%. For the same compound, the IC50 [3] was 14.6 ± 6.3 µM and the IC50 [7] was greater than 100 µM.

Compound `O=C(NC(=[Se])Nc1ccccc1)c1ccco1` [Compound 6a] has an IC50 [5] of 30.2 ± 7.2 µM, an IC50 [6] of 7.8 ± 1 µM and an activity at 10 µM [1] of 72.6%. The activity at 50 µM [1] was 35.5%, the “reduction of cell growth” value ([2]; 10 μM) was “at least 45%” and the “reduction of cell growth” value ([2]; 50 μM) was “more than 85%”. It also gave an activity at 10 µM ([2]; 10 μM) of 39.9%, an activity at 50 µM ([2]; 50 μM) of 5% and an IC50 [2, 9] of 3.5 ± 0.6 µM. For the same compound, the “SI (selectivity index)” value ([2]; IC50 (184B5)/IC50 (MCF-7)) was 14.7, the activity at 10 µM [3] was 72.8% and the activity at 50 µM [3] was 0.7%. The IC50 [3] was 26.1 ± 2.3 µM and the IC50 [7] was 52.2 ± 3.8 µM.

`Cc1ccc(NC(=[Se])NC(=O)C=Cc2ccccc2)cc1` [Compound 8b] showed an activity at 10 µM [1] of 95.3%, an activity at 50 µM [1] of 76.9% and an activity at 10 µM ([2]; 10 μM) of 95.5%. The activity at 50 µM ([2]; 50 μM) was 82.3%, the activity at 10 µM [3] was 85.9% and the activity at 50 µM [3] was 72.8%. The ABTS radical scavenging [8] was “below 60%”.

— article PMC7023466, “Novel N,N′-Disubstituted Acylselenoureas as Potential Antioxidant and Cytotoxic Agents” (Antioxidants, 2020)
